From publication PMC6941823, “A dispensable paralog of succinate dehydrogenase subunit C mediates standing resistance towards a subclass of SDHI fungicides in Zymoseptoria tritici” (PLoS Pathogens, 2019)
Where two headings read alike, the source gives them in different places.

What was measured:
[1] = target: SQR (SDHC / altC) of IPO323 pTet::SDHC3 transformant, repressed (Zymoseptoria tritici, UniProt A0A1X7RQW2+F9X9V6+F9XH52+O42772); assay: Succinate-quinone (SQR) SDHI sensitivity assay on purified mitochondria, IPO323 pTet::SDHC3 repressed; format: biochemical; settings: for RF (resistance factor), pTet Repressed (SDHC / altC): IC50 ratio compared to IPO323 values; for IC50: IPO323 pTet::SDHC3 transformant grown in presence of 30 mg.L^-1 doxycycline, mean of three ± SD
Experimental: (§1) Succinate-ubiquinone oxidoreductase (SQR) inhibition assays were performed on mitochondrial extracts from a panel of strains that were (i) either carrying a unique C-subunit encoding gene (ZtSDHC1, ZtSDHC1_A84I or Zt-SDHC3), or (ii) carrying two C-subunit encoding genes ZtSDHC1 and ZtSDHC3 (Table 1).
(§2) Biomass production, mitochondrial extraction and purification were performed as described in [14]. Succinate: ubiquinone/DCPIP sensitivity tests were performed as described in [14] with minor modification.

[2] = target: WT-SQR (SDHC), IPO323 mitochondria (Zymoseptoria tritici, UniProt F9X9V6+F9XH52+O42772); assay: Succinate-quinone (SQR) SDHI sensitivity assay on purified mitochondria, IPO323; format: biochemical
Sequence of WT-SQR (SDHC), IPO323 mitochondria (F9WWR1 entry or part of it): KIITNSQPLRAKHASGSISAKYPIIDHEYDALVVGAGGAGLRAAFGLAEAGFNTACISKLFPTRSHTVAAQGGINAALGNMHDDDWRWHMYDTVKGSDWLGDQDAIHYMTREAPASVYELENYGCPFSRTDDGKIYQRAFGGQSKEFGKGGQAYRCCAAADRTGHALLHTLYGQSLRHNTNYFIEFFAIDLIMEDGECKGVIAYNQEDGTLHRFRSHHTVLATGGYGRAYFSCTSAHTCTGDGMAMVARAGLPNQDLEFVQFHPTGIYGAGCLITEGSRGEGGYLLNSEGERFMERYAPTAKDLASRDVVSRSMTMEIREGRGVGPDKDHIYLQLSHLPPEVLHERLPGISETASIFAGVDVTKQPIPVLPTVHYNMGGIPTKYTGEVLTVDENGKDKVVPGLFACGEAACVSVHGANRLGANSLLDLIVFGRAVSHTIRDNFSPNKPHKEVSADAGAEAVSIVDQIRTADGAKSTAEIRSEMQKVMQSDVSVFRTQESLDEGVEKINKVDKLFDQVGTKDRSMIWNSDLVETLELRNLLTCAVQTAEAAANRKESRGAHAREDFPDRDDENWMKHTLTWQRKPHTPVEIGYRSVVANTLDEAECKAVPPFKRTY
Sequence of WT-SQR (SDHC), IPO323 mitochondria (F9X9V6 entry or part of it): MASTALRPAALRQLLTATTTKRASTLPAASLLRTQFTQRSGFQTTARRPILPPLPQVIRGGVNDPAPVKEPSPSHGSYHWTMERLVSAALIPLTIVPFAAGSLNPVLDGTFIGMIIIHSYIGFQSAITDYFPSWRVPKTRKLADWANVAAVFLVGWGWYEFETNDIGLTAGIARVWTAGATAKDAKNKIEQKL
Sequence of WT-SQR (SDHC), IPO323 mitochondria (O42772 19-297): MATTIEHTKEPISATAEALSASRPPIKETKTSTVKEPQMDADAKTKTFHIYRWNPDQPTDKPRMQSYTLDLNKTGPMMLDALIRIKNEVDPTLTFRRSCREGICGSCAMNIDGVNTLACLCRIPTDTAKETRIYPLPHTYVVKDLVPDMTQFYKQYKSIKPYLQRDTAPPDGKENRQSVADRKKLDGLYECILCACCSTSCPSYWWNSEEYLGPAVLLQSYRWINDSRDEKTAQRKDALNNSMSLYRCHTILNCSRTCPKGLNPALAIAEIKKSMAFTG
Sequence of WT-SQR (SDHC), IPO323 mitochondria (F9XH52 entry or part of it): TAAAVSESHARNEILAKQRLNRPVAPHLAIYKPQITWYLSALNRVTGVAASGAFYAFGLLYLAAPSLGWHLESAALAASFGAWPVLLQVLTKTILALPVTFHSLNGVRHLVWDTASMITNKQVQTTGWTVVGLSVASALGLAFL
Experimental: as §1
(§3) Biomass production, mitochondrial extraction and purification were performed as described in [14]. Succinate: ubiquinone/DCPIP sensitivity tests were performed as described in [14] with minor modification. The different mitochondrial suspensions were adjusted to similar initial velocity (1 OD595nm hour^-1) and inhibitor concentrations ranged between 0.047nM and 50μM with uniform 4x dilution steps (11 concentrations + DMSO control). Calculated absorbance slopes (OD/min) were used for IC50 calculations using GraphPad Prism 6.07 software non-linear curve fitting against log inhibitor concentrations.

[3] = target: SQR of 06STD024 (SDHC / altC) mitochondria (Zymoseptoria tritici, UniProt A0A1X7RQW2+F9X9V6+F9XH52+O42772); assay: Succinate-quinone (SQR) SDHI sensitivity assay on purified mitochondria, 06STD024; format: biochemical; settings: for RF (resistance factor), 06STD024 (SDHC / altC): IC50 ratio compared to IPO323 values; for IC50: mitochondria of field isolate 06STD024, mean of three ± SD
Sequence of SQR of 06STD024 (SDHC / altC) mitochondria (A0A1X7RQW2 36-181): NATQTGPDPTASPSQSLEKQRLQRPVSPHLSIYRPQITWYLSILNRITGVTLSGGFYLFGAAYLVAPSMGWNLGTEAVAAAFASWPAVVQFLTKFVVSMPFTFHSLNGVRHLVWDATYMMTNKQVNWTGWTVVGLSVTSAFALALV
Sequence of SQR of 06STD024 (SDHC / altC) mitochondria (O42772 19-297): as the sequence (O42772 19-297) above
Sequence of SQR of 06STD024 (SDHC / altC) mitochondria (F9X9V6 1-193): as the sequence (F9X9V6 entry or part of it) above
Sequence of SQR of 06STD024 (SDHC / altC) mitochondria (F9XH52 44-187): as the sequence (F9XH52 entry or part of it) above
Sequence of SQR of 06STD024 (SDHC / altC) mitochondria (F9WWR1 29-643 partner): as the sequence (F9WWR1 entry or part of it) above
Experimental: as §1, §2

[4] = system: Zymoseptoria tritici field and genetically modified strains; assay: Liquid culture assay for fungicide sensitivity determination; format: cell-based; settings: Zymoseptoria tritici, liquid culture sensitivity
Experimental: Sensitivity towards commercial fungicides was determined for a set of 99 SHA-SDHI-naïve Z. tritici field isolates sampled in Europe between 2006 and 2009. The EC50 of these isolates was determined in liquid growth assays and the data obtained compared for each possible pair of SDHI fungicides (cross-resistance (XR) plots, Fig 1). […] Comparative succinate-quinone reductase (SQR) enzyme inhibition tests were performed with mitochondria extracted from a panel of SHA-SDHIs tolerant and sensitive isolates.
In order to characterize in more depth the mechanisms driving sensitivity differences across the isolates, a subset of eight isolates carrying the ZtSDHC3 gene was analyzed for their sensitivity to SDHIs, alt-SDHC expression and splicing patterns. Liquid culture growth sensitivity tests were performed to determine EC50s for this set of isolates towards a wide range of commercial and research SDHIs (S5 Table).
Pre-culture of the inoculum and fungicide sensitivity tests were performed following previously described procedures. Different ranges of inhibitor concentrations were used for population monitoring and for the detailed phenotyping of a selected set of individual field isolates and genetically modified strains. For fungicide sensitivity monitoring of European field populations, final inhibitors concentrations were between 100 mg.L^-1 and 0.0001 mg.L^-1 with uniform 10x dilution steps (7 inhibitor concentrations + DMSO control). For refined sensitivity analysis of a smaller panel of isolates final inhibitor concentrations ranged between 0.5 mM and 0.47 nM with uniform 4x dilution factor steps (11 inhibitor concentrations+ DMSO control).

[5] = system: SQR (SDHC / altC) of IPO323 pTet::SDHC3 transformant, induced; assay: Succinate-quinone (SQR) SDHI sensitivity assay on purified mitochondria, IPO323 pTet::SDHC3 induced; format: biochemical, Zymoseptoria tritici; settings: IPO323 pTet::SDHC3 transformant grown in the absence of doxycycline; mean of three ± SD
Experimental: as §1, §2

[6] = target: altC-SQR (altC) of D024 SDHC1 KO mitochondria (Zymoseptoria tritici, UniProt A0A1X7RQW2+F9X9V6+O42772); assay: Succinate-quinone (SQR) SDHI sensitivity assay on purified mitochondria, 06STD024 SDHC1 KO; format: biochemical; settings: for RF (resistance factor), D024 SDHC1 KO (altC): IC50 ratio compared to IPO323 values; for IC50: mitochondria of 06STD024 ZtSDHC1 deletion mutant (pure altC-SQR), mean of three ± SD
Sequence of altC-SQR (altC) of D024 SDHC1 KO mitochondria (A0A1X7RQW2 36-181): as the sequence (A0A1X7RQW2 36-181) above
Sequence of altC-SQR (altC) of D024 SDHC1 KO mitochondria (O42772 20-297): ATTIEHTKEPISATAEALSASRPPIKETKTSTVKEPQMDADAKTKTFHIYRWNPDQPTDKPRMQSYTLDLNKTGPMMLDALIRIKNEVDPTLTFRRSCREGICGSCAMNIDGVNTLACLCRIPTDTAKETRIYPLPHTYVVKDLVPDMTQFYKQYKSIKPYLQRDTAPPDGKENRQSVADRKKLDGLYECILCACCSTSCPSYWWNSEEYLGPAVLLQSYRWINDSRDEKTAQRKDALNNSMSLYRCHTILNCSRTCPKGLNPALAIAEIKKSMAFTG
Sequence of altC-SQR (altC) of D024 SDHC1 KO mitochondria (F9X9V6 1-193): as the sequence (F9X9V6 entry or part of it) above
Sequence of altC-SQR (altC) of D024 SDHC1 KO mitochondria (F9WWR1 41-643 partner): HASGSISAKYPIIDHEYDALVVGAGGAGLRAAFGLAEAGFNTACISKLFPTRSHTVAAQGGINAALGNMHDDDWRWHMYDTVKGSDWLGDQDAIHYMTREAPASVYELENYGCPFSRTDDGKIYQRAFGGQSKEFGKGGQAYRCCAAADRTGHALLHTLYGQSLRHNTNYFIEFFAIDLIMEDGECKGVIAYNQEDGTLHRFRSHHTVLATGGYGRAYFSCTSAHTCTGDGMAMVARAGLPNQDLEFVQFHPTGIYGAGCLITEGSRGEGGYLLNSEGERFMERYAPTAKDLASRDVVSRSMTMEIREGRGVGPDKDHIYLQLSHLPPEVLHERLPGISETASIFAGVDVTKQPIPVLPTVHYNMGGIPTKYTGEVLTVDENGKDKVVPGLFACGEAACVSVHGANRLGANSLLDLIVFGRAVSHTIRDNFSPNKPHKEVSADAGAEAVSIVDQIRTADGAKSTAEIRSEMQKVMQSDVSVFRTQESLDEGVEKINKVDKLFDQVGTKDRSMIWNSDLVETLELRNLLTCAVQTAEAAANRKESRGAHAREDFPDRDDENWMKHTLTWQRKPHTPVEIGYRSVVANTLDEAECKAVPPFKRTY
Experimental: as §1, §2

[7] = target: SQR (SDHC) of D024 SDHC3 KO mitochondria (Zymoseptoria tritici, UniProt F9X9V6+F9XH52+O42772); assay: Succinate-quinone (SQR) SDHI sensitivity assay on purified mitochondria, 06STD024 SDHC3 KO; format: biochemical; settings: for RF (resistance factor), D024 SDHC3 KO (SDHC): IC50 ratio compared to IPO323 values; for IC50: mitochondria of 06STD024 ZtSDHC3 deletion mutant, mean of three ± SD
Experimental: as §1, §3

[8] = read-out: EC50 (nM) Mean, strain 06STD024
[9] = read-out: EC50 (nM) Mean, strain 07STGB009
[10] = read-out: EC50 (nM) Mean, strain 09STD041
[11] = read-out: EC50 (nM) Mean, strain 09STD053
[12] = read-out: EC50 (nM) Mean, strain 09STF011
[13] = read-out: EC50 (nM) Mean, strain 09STF037
[14] = read-out: EC50 (nM) Mean, strain 09STF112
[15] = read-out: EC50 (nM) Mean, strain 09STIR20.3
[16] = read-out: EC50 (nM) Mean, strain Flu21 (SDHC1_A84I)
[17] = read-out: EC50 (nM) Mean, strain IPO323
[18] = read-out: EC50 (nM) Mean, strain IPO94269
[19] = read-out: EC50 (nM) Mean, strain KO_SDHC1_T1
[20] = read-out: EC50 (nM) Mean, strain KO_SDHC1_T3
[21] = read-out: EC50 (nM) Mean, strain KO_SDHC3_T4
[22] = read-out: EC50 (nM) Mean, strain KO_SDHC3_T13
[23] = read-out: EC50 (nM) Mean, strain pTet::SDHC3_I78A_T1
[24] = read-out: EC50 (nM) Mean, strain pTet::SDHC3_I78A_T5
[25] = read-out: EC50 (nM) Mean, strain pTet::SDHC3_I78A_T15
[26] = read-out: EC50 (nM) Mean, strain pTet::SDHC3_I78A_T35
[27] = read-out: EC50 (nM) Mean, strain pTet::SDHC3_T1
[28] = read-out: EC50 (nM) Mean, strain pTet::SDHC3_T2
[29] = read-out: EC50 (nM) Mean, strain pTet::SDHC3_T3
[30] = read-out: EC50 (nM) Mean, strain pTet::SDHC3_T7

| Compound | IC50 [1] [nM] | IC50 [2] [nM] | IC50 [3] [nM] | EC50 [4, 8] [nM] | EC50 [4, 9] [nM] | EC50 [4, 10] [nM] | EC50 [4, 11] [nM] | EC50 [4, 12] [nM] | EC50 [4, 13] [nM] | EC50 [4, 14] [nM] | EC50 [4, 15] [nM] | EC50 [4, 16] [nM] | EC50 [4, 17] [nM] | EC50 [4, 18] [nM] | EC50 [4, 19] [nM] | EC50 [4, 20] [nM] | EC50 [4, 21] [nM] | EC50 [4, 22] [nM] | EC50 [4, 23] [nM] | EC50 [4, 24] [nM] | also measured |
| --- | --- | --- | --- | --- | --- | --- | --- | --- | --- | --- | --- | --- | --- | --- | --- | --- | --- | --- | --- | --- | --- |
| CC1=C(C(=O)Nc2ccccc2)SCCO1 [Carboxin] | 1200 ± 85 | 969 ± 182 | 731 ± 84.4 | 4620 | 6340 | 13200 | 9370 | 9620 | 6840 | 6780 | 13200 | 10200 | 8550 | 10800 | 10400 | 11200 | 20600 | 19600 | 7520 | 12700 | RF (resistance factor), pTet Repressed (SDHC / altC) [1]: 1.2; RF (resistance factor), 06STD024 (SDHC / altC) [3]: 0.8; EC50 [4, 25]: 8080 nM; EC50 [4, 26]: 15700 nM; EC50 [4, 27]: 6980 nM; EC50 [4, 28]: 7420 nM; EC50 [4, 29]: 6930 nM; EC50 [4, 30]: 8460 nM; IC50 [5]: 762 ± 164 nM; RF (resistance factor), D024 SDHC1 KO (altC) [6]: 0.9; IC50 [6]: 865 ± 215 nM; RF (resistance factor), D024 SDHC3 KO (SDHC) [7]: 0.8; IC50 [7]: 775 ± 94.5 nM |
| C[C@@H](Cc1ccc(Cl)cc1Cl)NC(=O)c1cn(C)nc1C(F)F [Compound 2] | 15.6 ± 3.9 | 5.3 ± 0.6 | 415 ± 68 | 2320 | 4000 | 702 | 367 | 606 | 178 | 786 | 259 | 5450 | 96.4 | 161 | 10400 | 8310 | 299 | 309 | 168 | 332 | EC50 [4, 25]: 150 nM; EC50 [4, 26]: 100 nM; EC50 [4, 27]: 6140 nM; EC50 [4, 28]: 5160 nM; EC50 [4, 29]: 5660 nM; EC50 [4, 30]: 7400 nM; IC50 [5]: 204 ± 20.7 nM; IC50 [6]: 358 ± 63.4 nM; RF (resistance factor), D024 SDHC3 KO (SDHC) [7]: 0.7; IC50 [7]: 3.7 ± 0.5 nM |
| O=C(Nc1ccccc1-c1ccc(Cl)cc1)c1cccnc1Cl [Boscalid] | 29.8 ± 4 | 17 ± 3.7 | 61.9 ± 16 | 1180 | 514 | 644 | 512 | 581 | 591 | 720 | 798 | 3020 | 384 | 853 | 2160 | 2050 | 637 | 681 | 776 | 1680 | RF (resistance factor), pTet Repressed (SDHC / altC) [1]: 1.8; RF (resistance factor), 06STD024 (SDHC / altC) [3]: 3.6; EC50 [4, 25]: 768 nM; EC50 [4, 26]: 270 nM; EC50 [4, 27]: 1300 nM; EC50 [4, 28]: 1420 nM; EC50 [4, 29]: 1450 nM; EC50 [4, 30]: 1460 nM; IC50 [5]: 40.3 ± 2.7 nM; RF (resistance factor), D024 SDHC1 KO (altC) [6]: 3.2; IC50 [6]: 54.4 ± 12.9 nM; RF (resistance factor), D024 SDHC3 KO (SDHC) [7]: 1.0; IC50 [7]: 16.4 ± 2.4 nM |
| Cn1cc(C(=O)NCCc2ccc(Cl)cc2Cl)c(C(F)F)n1 [Compound 1] | 152 ± 17.5 | 113 ± 10.9 | 875 ± 159 | 14700 | 15700 | 6050 | 6070 | 7870 | 4910 | 8980 | 4360 | 49100 | 3580 | 2710 | 125000 | 78800 | 9090 | 7200 | 4610 | 7960 | EC50 [4, 25]: 3300 nM; EC50 [4, 26]: 4430 nM; EC50 [4, 27]: 33300 nM; EC50 [4, 28]: 35300 nM; EC50 [4, 29]: 22900 nM; EC50 [4, 30]: 35300 nM; IC50 [5]: 484 ± 42.8 nM; IC50 [6]: 940 ± 238 nM; RF (resistance factor), D024 SDHC3 KO (SDHC) [7]: 0.7; IC50 [7]: 79.4 ± 7.6 nM |
